Assay results: patent publication US20210161807A1, “IMPLANTABLE DEVICE FOR LOCALIZED DRUG DELIVERY, USES AND MANUFACTURING METHOD THEREOF” (FONDAZIONE ISTITUTO ITALIANO DI TECNOLOGIA, priority 2018, published 2021)

Test: Release of docetaxel from the polymer matrix of the device
Type: physicochemical
Conditions: Docetaxel incorporated in the polymer matrix in the form of powder
Excerpt: The selected active ingredient may be appropriately incorporated into the polymer matrix in a form suitable for obtaining a prolonged release of the main active ingredient itself, without affecting the pharmacological activity thereof. For example, the Docetaxel incorporated in the polymer matrix in the form of powder is released up to 60 days after implantation. Longer release times may be easily achieved by incorporating the active ingredient, instead of in the form of powder, in its co-crystalline form. This solid form reduces the rate of dissolution, which is a necessary prerequisite for subsequent diffusion into the space surrounding the implanted device, […].
To study the release profile, the μMESH device and the FLAT counterpart thereof were incubated in 1 ml of phosphate buffered saline (PBS), to mimic and maximize the volume of liquid to which the devices may be exposed in a local application. At different times, the solution was centrifuged at 5000 rpm for 10 min and the supernatant was analyzed using the protocol described above. The results are expressed as a percentage of the cumulative release over time of three samples for each type of device.

In the case of `CC(=O)O[C@@]12CO[C@@H]1C[C@H](O)[C@@]1(C)C(=O)[C@H](O)C3=C(C)[C@@H](OC(=O)[C@H](O)[C@@H](NC(=O)OC(C)(C)C)c4ccccc4)C[C@@](O)([C@@H](OC(=O)c4ccccc4)[C@H]21)C3(C)C` [Docetaxel], the “release time of active ingredient after implantation” value was “up to 60 days”.
